Measured values from patent US4892826A, “Process for the preparation of urokinase derivatives” (Abbott Laboratories, priority 1988, dated 1990).
Each block holds one compound with its values, some of them ahead of it.

Experiments:
[1] = Urokinase amidolytic activity assay with chromogenic substrate S-2444; format: biochemical; conditions: isolated derivative
Protocol: The reduction of the three disulfide bridges can be monitored, for example, by assays of the amidolytic activity of the urokinase, by titration of the available SH groups, or by reverse phase chromatography of the reduced urokinase. Preferably, the reduction is monitored by assaying the gain or loss of amidolytic activity of the urokinase.
Approximately 1 to 2 mg/ml of the UK23 solution, in 0.1M phosphate (pH 7), was diluted with 1 volume of 0.5M arginine in water (pH 7). The reducing agent DTT, from a fresh stock solution of 1M in water, was added to adjust the final DTT concentration to 10 mM. […] The absorbance increase at 406 nm was monitored over a five minute period. One enzyme unit was defined as an increase in absorbance at 406 nm of 1 unit per minute.

[2] = biological target: urokinase (Homo sapiens, UniProt P00749); experiment: biochemical
Excerpt: The optimal concentration of arginine can be approximated by its apparent Ki value for inhibition of urokinase as calculated from a Dixon plot. Dixon, M, Biochem. J., 55, 170-171 (1953). […] It is preferred that the concentration of arginine chosen will maximally saturate the urokinase molecule and confer a protective effect against the previously discussed over reduction of the disulfide bridges.

Compound: GPRP-Amino hexanoic acid-LKFQCGQK Urokinase Derivative [Example 1]
amidolytic activity, % of the initial UK23 value ([1]; repeated procedures): 80% to 100

Compound: N=C(N)NCCC[C@H](N)C(=O)O [arginine]
Ki [2]: 70 mM

active (amidolytic activity of resulting derivative) [1]: 100%
Compound: Heparin-LKFQCGQK Urokinase Derivative [Example 4]
